Laboratory results reported in patent US8765683B2, “T-140 peptide analogs having CXCR4 super-agonist activity for cancer therapy” (Biokine Therapeutics Ltd., priority 2006, dated 2014).
Bridge positions count the residues as written; N and C are the ends. Square brackets hold non-standard residues; d marks the D form. Peptide text beside a SMILES is read from it. * marks the point of attachment. 2Nal = N[C@@H](Cc1ccc2ccccc2c1)C(=O)O; Benzoyl(4-F) = O=C(c1ccc(F)cc1)*; Cit = NC(=O)NCCC[C@H](N)C(=O)O

Assays:
PC3 cells [1] = experiment: Proliferation of PC3 prostate tumor cells; assay type: cell-based
Procedure: (§1) Next, the effect of the CXCR4 modulators on PC3 and PC3-CXCR4.5 prostate tumor cells was tested. […] The proliferation induced by 4F-benzoyl-TN14003 was dose-dependent (FIG. 3B).

[2] = tested on: human primary keratinocytes; experiment: Proliferation and survival of keratinocytes; assay type: cell-based; conditions: AMD-3100 20 μM; 4F-benzoyl-TN14003 4-20 μM
Procedure: (§2) The effect of CXCR4 antagonists on the survival of freshly isolated normal CD4^+ T cells, CD34^+ stem cells and keratinocytes was examined. The proliferation and survival of keratinocytes was not inhibited by CXCR4 antagonists AMD-3100 (20 μM) and 4F-benzoyl-TN14003 (4-20 μM) or the natural ligand CXCL12 (FIG. 2C). The proliferation and survival of CD4^+ T cells was not inhibited by CXCR4 antagonists AMD-3100 (20 μM).

U-87 = experiment: Proliferation of U-87 glioblastoma cells; assay type: cell-based
SKBR3 = experiment: Proliferation of SKBR3 breast carcinoma cells; assay type: cell-based
human CD4+ T cells = experiment: Proliferation and survival of CD4+ T cells; assay type: cell-based; conditions: AMD-3100 20 μM; 4F-benzoyl-TN14003 4-20 μM
Procedure: as §2

[3] = tested on: human CD34+ hematopoietic stem cells; conditions: AMD-3100 20 μM
PC3-CXCR4.5 cells [4] = experiment: Proliferation of PC3-CXCR4.5 prostate tumor cells; assay type: cell-based
Procedure: as §1

22Rv1 = experiment: Proliferation of 22Rv1 prostate carcinoma cells; assay type: cell-based
ARH77 = experiment: Proliferation and apoptosis (annexin) of ARH77 MM cells; assay type: cell-based, human; conditions: 4F-benzoyl-TN14003 0.4-40 μM
BM derived CD34+ cells = experiment: Survival of CD34+ cells in BM samples of MM patients; assay type: cell-based, human; conditions: 8 μM, 24 hr
PC3-CXCR4.5 cells [5] = experiment: MIP3α secretion by PC3-CXCR4.5 cells (ELISA); assay type: cell-based
Procedure: (§3) In this example, regulation of the chemokine MIP3α (macrophage inflammatory protein 3α) was examined. […] In FIG. 1B, PC3 (left panel) and PC3-CXCR4.5 (right panel) cells were stimulated with the indicated concentrations of CXCL12 for 48 hours and MIP3α secretion was assessed by ELISA. The results represent the average of triplicates±STDEV.
(§4) The effects of the CXCR4 antagonist AMD3100 and of 4F-benzoyl-TN14003 (4FB-TN14003), hitherto known as a CXCR4 antagonist, on MIP3α secretion were further tested. […] In FIG. 1C, CXCR4 signaling in PC3 (left panel) and PC3-CXCR4.5 (right panel) cells was inhibited with anti-CXCL12 antibodies (αCXCL12) and Pertussis toxin (PTX) treatments alone or in combination with CXCL12, as indicated. Secretion of MIP3α was assessed by ELISA. The results represent the average of triplicates±STDEV.

U87 glioma cells = experiment: Survival and death of U87 glioma cells (Annexin V); assay type: cell-based
Procedure: U87 cells were treated with 4F-benzoyl-TN14003 and tested for their survival (FIG. 15A) and death (FIG. 15B).

NCI human MM cells = experiment: Proliferation and apoptosis (annexin) of NCI MM cells; assay type: cell-based; conditions: 4F-benzoyl-TN14003 0.4-40 μM
U266 = experiment: Proliferation and apoptosis (annexin) of U266 MM cells; assay type: cell-based, human; conditions: 4F-benzoyl-TN14003 0.4-40 μM
[6] = tested on: BM derived CD138+ MM cells; experiment: Survival and apoptosis of BM derived cells of MM patients; assay type: cell-based, human
NB4 cells = experiment: Proliferation of NB4 AML cells; assay type: cell-based, human
Jurkat cells = experiment: Migration of Jurkat cells in response to CXCL12; assay type: cell-based, human; conditions: CXCL12 50 ng/ml; peptide incubated with Proteinase K
Excerpt: AMD3100 was purchased from Sigma, Israel.

K562 cells = experiment: Proliferation and apoptosis (Annexin V) of CML K562 cells; assay type: cell-based, human; conditions: K562 (low CXCR4); 4F-benzoyl-TN14003 4-20 μM
Excerpt: (§5) The proliferation and survival of the CML K562 cells or K562 cells that over-express CXCR4 (indicated “CXCR4 high” or “K562-CXCR4”) was first studied.

K562L cells = experiment: K562L (luciferase) CML model, CCCD camera; assay type: in vivo, NOD/SCID mice
Procedure: In order to monitor the progression and localization of leukemic cells in vivo, the human CML tumor cell lines K562 (K562L) was stably transduced with a retrovirus carrying the luciferase gene. This cell line was injected IP into NOD/SCID mice (2.5×10^5, 5×10^5, 10^6, 2×10^6 per mouse; FIGS. 18 A-D, respectively) that were pretreated with a sub-lethal dose of radiation in order to diminish any natural killer cell activity and enhance acceptance of the tumor cells. Twenty-four hr after injection of the cells, the light generated internally by the luciferase expressed in the tumor cells and then transmitted through the animal's tissues was monitored externally using a cooled charge-coupled device camera (CCCD). The substrate luciferin was provided exogenously via IP injection. […] Quantitation was achieved by integrating the signal intensity using the Metaview software.
Two therapeutic approaches were studied using this model. […] In addition, the effect of 4F-benzoyl-TN14003 on the growth of cells in vivo was investigated.
Further, the effect of 4F-benzoyl-TN14003 on K562L tumor development was studied. 4F-benzoyl-TN14003 was injected i.p into NOD/SCID mice in the amount of 4 mg/Kg per mouse/per injection. The first injection of 4F-benzoyl-TN14003 was given immediately after the injection of K562-luc cells in an opposite route of injection on the peritoneum. Further injections of 4F-benzoyl-TN14003 were given every three days. Mice were monitored under the CCCD camera, 24 hr after each injection at serial time points, every three days.
4F-benzoyl-TN14003 was injected i.p into NOD/SCID mice in the amount of 2 mg/Kg whereas AMD-3100 was injected 4 mg/Kg per mouse/per injection. The first injection was given 2 days after the injection of K562-luc cells. Further injections were given on days 5, 7 and 11. Mice (n=3) were monitored under the CCCD camera on day 17 after injection of cells.

K562-CXCR4 = experiment: Proliferation and apoptosis (Annexin V) of K562 cells over-expressing CXCR4; assay type: cell-based, human; conditions: K562 high CXCR4; 4F-benzoyl-TN14003 4-20 μM
Excerpt: as §5

human NB4 leukemic cells = experiment: NB4 leukemic xenograft model; assay type: in vivo, nude mice
Procedure: Acute promyelocytic leukemia (APL)-derived NB4 cell is extensively used as an in vitro and in vivo model system for studying human leukemia. To investigate the therapeutic anti-tumor potential of the CXCR4 antagonist 4F-benzoyl-TN14003 against human leukemic cells, 10×10^6 NB4 cells were injected subcutaneously (s.c) into immunodeficient nude mice (n=5). After 14 days, tumors were established at the size of 0.4 cm^2, and mice were divided into 4F-benzoyl-TN14003-treated (8 mg/Kg, open squares) and PBS-treated (control, full diamonds) groups. The 4F-benzoyl-TN14003 drug solution was administered intraperitoneal (i.p) each day for 5 days, followed by 2 days without drug, and then 4 additional daily injections (total of 9 injections, FIG. 16).
To further test the effect of 4F-benzoyl-TN14003 against human leukemic cells, 5×10^6 NB4 cells were injected subcutaneously (s.c) into immunodeficient nude mice (n=5). After 14 days, tumors were very small, at the size of 0.02 cm^2, and mice were divided into 4F-benzoyl-TN14003-treated (open squares) and PBS-treated (control, full diamonds) groups. The 4F-benzoyl-TN14003 drug solution was administered subcutaneously (8 mg/Kg) each day for 4 days (total of 4 injections, FIG. 17A). On day 20, all control mice developed tumors (0.49±0.1 cm^2), whereas in the treated mouse group, only 1 mouse developed a small tumor.
On day 31, all control mice developed big tumors in size (FIG. 17A) and weight (FIG. 17B), whereas in the treated group, 4/5 mice developed smaller tumors in size and weight.

HL-60 cells = experiment: Proliferation and apoptosis (Annexin V) of HL-60 cells; assay type: cell-based, human
PC3 cells [7] = experiment: MIP3α secretion by PC3 cells (ELISA); assay type: cell-based
Procedure: as §3, §4

With “CXCL12: chemokine, CXCR4's only natural ligand” the proliferation (PC3 cells [1]) was “induced the proliferation of prostate cancer cells”, the “proliferation and survival of keratinocytes” value [2] was “not inhibited” and the proliferation (U-87) was “either stimulated or not affected”. For the same compound, the proliferation (SKBR3) was “either stimulated or not affected”, the “proliferation and survival of CD4+ T cells” value (human CD4+ T cells) was “induced T cell proliferation” and the “CD34+ stem cell numbers” value [3] was “did not affect cell numbers”. The proliferation (PC3-CXCR4.5 cells [4]) was “induced the proliferation of prostate cancer cells” and the proliferation (22Rv1) was “either stimulated or not affected”.

In the case of N=C(N)NCCC[C@H](NC(=O)[C@@H]1CSSC[C@H](NC(=O)[C@H](Cc2ccc3ccccc3c2)NC(=O)[C@H](CCCNC(=N)N)NC(=O)[C@H](CCCNC(=N)N)NC(=O)c2ccc(F)cc2)C(=O)N[C@@H](Cc2ccc(O)cc2)C(=O)N[C@@H](CCCNC(N)=O)C(=O)N[C@@H](CCCCN)C(=O)N[C@H](CCCCN)C(=O)N2CCC[C@H]2C(=O)N[C@@H](Cc2ccc(O)cc2)C(=O)N[C@@H](CCCNC(=N)N)C(=O)N[C@@H](CCCNC(N)=O)C(=O)N1)C(N)=O [4F-benzoyl-TN14003, 4F-benzoyl-Arg-Arg-Nal-Cys-Tyr-Cit-Lys-DLys-Pro-Tyr-Arg-Cit-Cys-Arg-NH2] ({Benzoyl(4-F)}-RR[2Nal]CY[Cit]K[dK]PYR[Cit]CR-NH2; disulfide 4-13), the “apoptotic cell death (annexin assay)” value (ARH77) is reported as “stimulated apoptotic cell death”, the growth (ARH77) is reported as “inhibited the growth” and the proliferation (PC3 cells [1]) is reported as “induced the proliferation of prostate cancer cells”. For the same compound, the “proliferation and survival of keratinocytes” value [2] was “not inhibited”, the proliferation (U-87) was “either stimulated or not affected” and the proliferation (SKBR3) was “either stimulated or not affected”. The “percentage of CD34+ cells” value (BM derived CD34+ cells) was “remained unaffected”, the MIP3α secretion (PC3-CXCR4.5 cells [5]; ELISA) was “induced in both cell lines MIP3α secretion in an agonist manner” and the “tumor cell death of glioma cells” value (U87 glioma cells) was “induce tumor cell death”. The “apoptotic cell death (annexin assay)” value (NCI human MM cells) was “stimulated apoptotic cell death”, the growth (NCI human MM cells) was “inhibited the growth” and the “proliferation and survival of CD4+ T cells” value (human CD4+ T cells) was “induced T cell proliferation”. For the same compound, the “apoptotic cell death (annexin assay)” value (U266) was “stimulated apoptotic cell death”, the growth (U266) was “inhibited the growth” and the “apoptosis of CD138+ MM cells” value ([6]; 8 μM, 24 hr) was “induced apoptosis”. For the same compound, the “sensitivity of normal BM samples or BM samples with low percentage of MM cells” value ([6]; freshly isolated BM cells) was “not sensitive to treatment”, the “sensitivity of BM derived samples with high percentage of MM” value ([6]; freshly isolated BM cells of MM patients) was “sensitive to treatment” and the “sensitivity of NB4 cells (inhibitory effect)” value (NB4 cells; compared with HL-60) was “less sensitive”. For the same compound, the “activity on migration of Jurkat cells in response to CXCL12 after treatment of the peptide with proteinease K” value (Jurkat cells) was “abolished the activity of the peptide”, the “apoptotic cell death (Annexin V assay)” value (K562 cells) was “stimulated apoptotic cell death” and the growth (K562 cells) was “inhibited the growth”. The proliferation (PC3-CXCR4.5 cells [4]) was “induced the proliferation of prostate cancer cells”, the “inhibition in K562L tumor development” value (K562L cells; 2 mg/Kg i.p. days 2, 5, 7, 11, day 17, FIG. 21) was over 90% and the “inhibition in K562L tumor development over time” value (K562L cells; 4 mg/Kg i.p. every three days, FIG. 20) was 50%. The “apoptotic cell death (Annexin V assay)” value (K562-CXCR4) was “stimulated apoptotic cell death”, the growth (K562-CXCR4) was “inhibited the growth” and the “mice that developed smaller tumors in size and weight on day 31” value (human NB4 leukemic cells; 8 mg/Kg s.c. each day for 4 days) was 4/5. The “mice that developed a tumor on day 20” value (human NB4 leukemic cells; 8 mg/Kg s.c. each day for 4 days, n=5, all control mice developed tumors) was 1, the tumor growth (human NB4 leukemic cells; established tumors 0.4 cm^2, 8 mg/Kg i.p., 9 injections) was “tumor growth was arrested” and the proliferation (22Rv1) was “either stimulated or not affected”. The “apoptotic cell death (Annexin V assay)” value (HL-60 cells; 4F-benzoyl-TN14003 4-20 μM) was “stimulate apoptotic cell death” and the growth (HL-60 cells; 4F-benzoyl-TN14003 4-20 μM) was “inhibit the growth”.

For Cc1ccc(NC(=O)c2ccc(CN3CCN(C)CC3)cc2)cc1Nc1nccc(-c2cccnc2)n1 [STI571], the “tumor development of K562L cells” value (K562L cells; 40 mg/Kg IP, FIG. 20) was “inhibit tumor development” and the “signal intensities over time” value (K562L cells; 40 mg/Kg, FIG. 19) was “significant reduction in signal intensities”.

For c1cc(CN2CCCNCCNCCCNCC2)ccc1CN1CCCNCCNCCCNCC1 [AMD-3100, reference compound], the proliferation (PC3 cells [1]) was “induced the proliferation of prostate cancer cells”, the “proliferation and survival of keratinocytes” value [2] was “not inhibited” and the proliferation (U-87) was “either stimulated or not affected”. The proliferation (SKBR3) was “either stimulated or not affected”, the “proliferation and survival of CD4+ T cells” value (human CD4+ T cells) was “not inhibited” and the “effect of pretreatment with AMD-3100 on the inhibitory effect of 4F-benzoyl-TN14003” value (NB4 cells; NB4 cells) was “abolished”. The “CD34+ stem cell numbers” value [3] was “did not affect cell numbers”, the proliferation (PC3-CXCR4.5 cells [4]) was “induced the proliferation of prostate cancer cells” and the proliferation (22Rv1) was “either stimulated or not affected”. The “effect of pretreatment with AMD-3100 on the effect of 4F-benzoyl-TN14003” value (HL-60 cells; AMD-3100 50 μM pretreatment) was “abolished the effect of 4F-benzoyl-TN14003”.

In the case of Pertussis toxin, the MIP3α secretion (PC3-CXCR4.5 cells [5]; ELISA) is reported as “secretion of MIP3α was decreased”, the MIP3α secretion (PC3-CXCR4.5 cells [5]; PTX in combination with CXCL12) is reported as “did not demonstrate an inhibitory effect” and the MIP3α secretion (PC3 cells [7]) is reported as “effectively inhibited the secretion of MIP3α”.
